What is called IC50 is the point on the concentration scale where inhibition reaches its midpoint.

These results are taken from patent EP1953147A1, “HETEROCYCLIC COMPOUND AND MEDICINAL APPLICATION THEREOF” (priority 2005, dated 2007).

The test deals with ΔG/SEAP/HCV E1E2. In words: Effect of test substance on cell infection with HCV pseudotype virus (SEAP reporter assay in HepG2 cells). Format: cell-based. To be noted: Hepatitis C virus. On the technique in general: A reporter such as luciferase makes a cellular process visible.
For the molecule `COc1cc(OC)cc(-c2nn(-c3cc(NCCC(=O)N(C)C)ccc3C(F)(F)F)c(=O)c3c2CCC3)c1` [Example 139, 3-{3-[4-(3,5-dimethoxy-phenyl)-1-oxo-1,5,6,7-tetrahydro-cyclopenta[d]pyridazin-2-yl]-4-trifluoromethyl-phenylamino}-N,N-dimethyl-propionamide], the IC50 is under 100 nM.
For `COc1cc(OC)cc(-c2nn(-c3cc(NCC(=O)OC(C)(C)C)ccc3C(F)(F)F)c(=O)c3c2CCC3)c1` [Example 94, {3-[4-(3,5-dimethoxy-phenyl)-1-oxo-1,5,6,7-tetrahydro-cyclopenta[d]pyridazin-2-yl]-4-trifluoromethyl-phenylamino}-acetic acid tert-butyl ester] the value was 100 to 10000 nM; for `COc1cc(OC)cc(-c2nn(-c3cc(F)ccc3C(F)(F)F)c(=O)c3c2CCN3)c1` [Example 50, 4-(3,5-dimethoxy-phenyl)-6-(5-fluoro-2-trifluoromethyl-phenyl)-1,2,3,6-tetrahydro-pyrrolo[2,3-d]pyridazin-7-one], 100 to 10000 nM; for `COc1cc(OC)cc(-c2nn(-c3cc(N4CCC(=O)C4)ccc3C(F)(F)F)c(=O)c3c2CCN3)c1` [Example 25, 4-(3,5-dimethoxy-phenyl)-6-[5-(3-oxo-pyrrolidin-1-yl)-2-trifluoromethyl-phenyl]-1,2,3,6-tetrahydro-pyrrolo[2,3-d]pyridazin-7-one], under 100 nM.
With `COc1cc(OC)cc(-c2nn(-c3cc(N(C)CCCO)ccc3C(F)(F)F)c(=O)c3c2CCC3)c1` [Example 145, 4-(3,5-dimethoxy-phenyl)-2-{5-[(3-hydroxypropyl)-methyl-amino]-2-trifluoromethyl-phenyl}-2,5,6,7-tetrahydro-cyclopenta[d]pyridazin-1-one] the figure was under 100 nM; with `COc1cc(C)cc(-c2nn(-c3cc(N4CC[C@@H](O)C4)ccc3C(F)(F)F)c(=O)c3c2CCC3)c1` [Example 23, 2-[5-((R)-3-hydroxy-pyrrolidin-1-yl)-2-trifluoromethyl-phenyl]-4-(3-methoxy-5-methyl-phenyl)-2,5,6,7-tetrahydro-cyclopenta[d]pyridazin-1-one], under 100 nM.
In turn, `O=c1c2c(c(-c3cccc(F)c3)nn1-c1cc(N3CC[C@H](O)C3)ccc1C(F)(F)F)CCC2` [Example 65, 4-(3-fluoro-phenyl)-2-[5-((S)-3-hydroxy-pyrrolidin-1-yl)-2-trifluoromethyl-phenyl]-2,5,6,7-tetrahydro-cyclopenta[d]pyridazin-1-one] came in with an IC50 of under 100 nM.
The molecule `O=c1c2c(c(-c3ccccc3O)nn1-c1cc(N3CC[C@H](O)C3)ccc1C(F)(F)F)CCC2` [Example 111, 4-(2-hydroxy-phenyl)-2-[5-((S)-3-hydroxy-pyrrolidin-1-yl)-2-trifluoromethyl-phenyl]-2,5,6,7-tetrahydro-cyclopenta[d]pyridazin-1-one] came in with an IC50 of 100 to 10000 nM.
`COc1cc(OC)cc(-c2nn(-c3cc(NCCCN(C)C)ccc3C(F)(F)F)c(=O)c3c2CCC3)c1` [Example 128, 4-(3,5-dimethoxy-phenyl)-2-[5-(3-dimethylamino-propylamino)-2-trifluoromethyl-phenyl]-2,5,6,7-tetrahydro-cyclopenta[d]pyridazin-1-one]: the IC50 was under 100 nM.
For `COc1cccc(-c2nn(-c3cc(N4CC[C@H](O)C4)ccc3C(F)(F)F)c(=O)c3c2CCC3)c1` [Example 58, 2-[5-((S)-3-hydroxy-pyrrolidin-1-yl)-2-trifluoromethyl-phenyl]-4-(3-methoxy-phenyl)-2,5,6,7-tetrahydro-cyclopenta[d]pyridazin-1-one] the value was under 100 nM.
`COc1cc(OC)cc(-c2nn(-c3cc(OCCO)ccc3C(F)(F)F)c(=O)c3c2CCC3)c1` [Example 63, 4-(3,5-dimethoxy-phenyl)-2-[5-(2-hydroxy-ethoxy)-2-trifluoromethyl-phenyl]-2,5,6,7-tetrahydro-cyclopenta[d]pyridazin-1-one] registered an IC50 of under 100 nM.
For `COc1cc(OC)cc(-c2nn(-c3cc(N4CC[C@H](O)C4)ccc3C(F)(F)F)c(=O)c3c2CCN3Cc2ccccc2)c1` [Example 102, 1-benzyl-4-(3,5-dimethoxy-phenyl)-6-[5-((S)-3-hydroxy-pyrrolidin-1-yl)-2-trifluoromethyl-phenyl]-1,2,3,6-tetrahydro-pyrrolo[2,3-d]pyridazin-7-one] the value was under 100 nM.
With `COc1cc(OC)cc(-c2nn(-c3cc(OCCCO)ccc3C(F)(F)F)c(=O)c3c2CCC3)c1` [Example 1-13, 4-(3,5-dimethoxy-phenyl)-2-[5-(3-hydroxy-propoxy)-2-trifluoromethyl-phenyl]-2,5,6,7-tetrahydro-cyclopenta[d]pyridazin-1-one] the figure was under 100 nM.
